# Source: patent publication US20080234232A1, “Methods and compositions for targeting AFAP” (priority 2007, published 2008)
# Columns and labels:
# [1] = system: AFAP-110 colocalization with cSrc and cSrc activation; assay: Immunofluorescence: PMA-induced colocalization of AFAP-110 with cSrc and cSrc activation in mouse embryo fibroblasts; format: cell-based
# Description: FIG. 1: LY294002 blocks PMA-induced colocalization between AFAP-110 and cSrc, and subsequent cSrc activation. A) SYF cells transiently co-expressing GFP-AFAP-110 and cSrc were untreated (panels a-d), treated with 100 nM PMA for 15 minutes (panels e-h), or treated with PMA and either 6 μM bisindolylmaleimide (panels i-I), 10 μM LY294002 (panels m-p) or 50 nM Wortmannin (panels q-t). Fixed cells were immunolabeled with avian specific cSrc antibody, EC10 (1:500), and phospho-Src-family (Tyr416) (1:250) as described in the methods section. Secondary antibodies used were Atexa 546 anti-mouse for EC10 and Alexa 647 anti-rabbit for phospho-Src-family (Tyr416). A merged image was generated to determine colocalization between AFAP-110 and cSrc. Bars represent 20 μM.
# D) Knockout MEFs (p85−/−) were transfected with GFP-AFAP-110 and cSrc. Fixed cells were immunolabeled with EC10 (1:500) and phospho-Src-family (Tyr416) (1:250) as described in the methods section. Secondary antibodies used were Alexa 546 anti-mouse for EC10 and Alexa 647 anti-rabbit for phospho-Src-family (Tyr416). Cells treated with 100 riM PMA for 15 minutes (panels e-h). Images were merged to determine colocalization of cSrc and GFP-AFAP-110. Bars represent 20 μm. Mouse embryo fibroblast cells that express the p85α isoform of the PI3K regulatory subunit (p85α+/+) were transfected with GFP-AFAP-110 and cSrc. Fixed cells were immunolabeled with EC10 (1:500) and phospho-Src-family (Tyr416) (1:250) as described in the methods section. Secondary antibodies used were Alexa 546 anti-mouse for EC10 and Alexa 647 anti-rabbit for phospho-Src-family (Tyr416). Images were merged to determine colocalization of cSrc and GFP-AFAP-110. Bars represent 20 μm.
# SYF, SYF/cSrc, p85α+/+ and p85−/− cells were cultured in standard culture media. Transient transfections of SYF, SYF/cSrc, p85α+/+ cells for immunofluorescence were carried out using LipofectAMINE™ Reagent (Invitrogen) as per manufacturer's protocol. Briefly, Approximately 5.0-8.0×10^4 cells per well were transfected at 50-70% confluent on coverstips with 2-4 μg of plasmid DNA and incubated for 3-4 hours. Thirty-six hours after transfection, cells were serum starved for 12 hours, treated, and subsequently fixed and permeablized as previously described (Qian, Y. et. al., 1998). Cells were treated with a PKC activator, 100 nM PMA for 5 or 15 minutes or in combination with the following pretreatments; a PKC inhibitor, 6 μM bisindolylmaleimide [I] for six hours; or PI3K inhibitor, 10 μM LY294002 for six hours; 50 nM Wortmannin for 30 minutes; and/or a Src family inhibitor, 5 μM PP1 for six hours. For actin labeling, a 1:500 dilution of TRITC-phalloidin was used as labeled in the figures. Primary antibody concentrations used were diluted in 5% Bovine Serum Albumin (BSA) dissolved in 1× phosphate-buffered saline (PBS): EC10 mAb-1:500; Phospho-Src Family (Y416) pAb-1:250; Anti-PI-3,4,5-P3 mAb-1:100; Anti-AFAP-110 (F1)pAb-1:1000; Anti-cSrc pAb-1:500; Anti-flag-1:1000. All fluorescent secondary and phalloidin antibodies were diluted 1:200 in 5% BSA, and are labeled according to figure legends. Cells were washed and mounted on slides with Fluoromount-G (Fisher). A Zeiss LSM 510 confocal microscope was used to scan images of about 1 μM in thickness. To prevent cross-contamination between the different fluorochromes, each channel was imaged sequentially using the multitrack recording module before merging the images. For all figures, representative cells are shown (>100 cells examined per image shown).
# We utilized SYF cell lines as a model system, mouse embryo fibroblasts engineered to contain null mutations in the c-src,fyn, and c-yes genes (Klinghoffer, R. A. et. al., 1999). The cells were transiently co-transfected with constructs that encode cSrc and GFP-tagged AFAP-110, as previously described (Gatesman, A. et. al., 2004). […]
# PI3K = target: T1, PI3K (Mus musculus, UniProt P42337); assay: In vitro PI3K kinase assay on anti-p110α immunoprecipitates of treated SYF/cSrc cells; format: cell-based; conditions: SYF/cSrc cells serum-starved, 100 nM PMA for 5 or 15 minutes
# T1 construct: a PI3K kinase activity assay performed using anti-p1100α immunoprecipitates; endogenous in cells; host or cells: SYF/cSrc mouse embryo fibroblasts (lysate, anti-p110α immunoprecipitate)
# T1 sequence (P42337 whole entry): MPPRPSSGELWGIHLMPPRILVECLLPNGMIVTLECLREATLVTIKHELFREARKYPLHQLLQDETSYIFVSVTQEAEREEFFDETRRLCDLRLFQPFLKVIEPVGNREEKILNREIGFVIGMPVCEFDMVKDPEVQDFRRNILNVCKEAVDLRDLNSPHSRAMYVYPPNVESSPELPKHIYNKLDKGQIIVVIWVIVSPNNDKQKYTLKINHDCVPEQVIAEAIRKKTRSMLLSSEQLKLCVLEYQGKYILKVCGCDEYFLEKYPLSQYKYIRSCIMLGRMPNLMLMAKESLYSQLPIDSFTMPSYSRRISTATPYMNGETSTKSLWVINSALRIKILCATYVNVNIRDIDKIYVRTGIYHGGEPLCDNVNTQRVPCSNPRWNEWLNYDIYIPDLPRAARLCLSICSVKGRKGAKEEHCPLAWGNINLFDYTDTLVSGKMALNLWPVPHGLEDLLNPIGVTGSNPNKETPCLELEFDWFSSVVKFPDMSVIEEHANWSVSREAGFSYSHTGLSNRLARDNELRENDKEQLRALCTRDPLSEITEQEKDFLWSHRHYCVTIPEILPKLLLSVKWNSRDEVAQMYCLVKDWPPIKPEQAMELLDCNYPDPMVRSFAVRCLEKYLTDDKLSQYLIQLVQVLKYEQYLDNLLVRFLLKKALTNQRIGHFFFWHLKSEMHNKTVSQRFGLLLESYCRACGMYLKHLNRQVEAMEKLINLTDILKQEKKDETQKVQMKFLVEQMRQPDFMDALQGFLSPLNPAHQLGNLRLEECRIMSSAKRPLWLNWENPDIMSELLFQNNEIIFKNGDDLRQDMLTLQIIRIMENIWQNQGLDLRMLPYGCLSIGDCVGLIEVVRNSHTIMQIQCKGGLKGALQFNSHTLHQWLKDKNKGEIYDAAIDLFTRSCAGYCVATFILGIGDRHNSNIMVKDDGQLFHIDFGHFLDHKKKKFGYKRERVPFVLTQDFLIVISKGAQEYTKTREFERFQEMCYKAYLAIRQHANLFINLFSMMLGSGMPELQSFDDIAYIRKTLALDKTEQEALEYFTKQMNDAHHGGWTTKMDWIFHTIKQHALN
# T1 sequence (P26450 whole entry partner): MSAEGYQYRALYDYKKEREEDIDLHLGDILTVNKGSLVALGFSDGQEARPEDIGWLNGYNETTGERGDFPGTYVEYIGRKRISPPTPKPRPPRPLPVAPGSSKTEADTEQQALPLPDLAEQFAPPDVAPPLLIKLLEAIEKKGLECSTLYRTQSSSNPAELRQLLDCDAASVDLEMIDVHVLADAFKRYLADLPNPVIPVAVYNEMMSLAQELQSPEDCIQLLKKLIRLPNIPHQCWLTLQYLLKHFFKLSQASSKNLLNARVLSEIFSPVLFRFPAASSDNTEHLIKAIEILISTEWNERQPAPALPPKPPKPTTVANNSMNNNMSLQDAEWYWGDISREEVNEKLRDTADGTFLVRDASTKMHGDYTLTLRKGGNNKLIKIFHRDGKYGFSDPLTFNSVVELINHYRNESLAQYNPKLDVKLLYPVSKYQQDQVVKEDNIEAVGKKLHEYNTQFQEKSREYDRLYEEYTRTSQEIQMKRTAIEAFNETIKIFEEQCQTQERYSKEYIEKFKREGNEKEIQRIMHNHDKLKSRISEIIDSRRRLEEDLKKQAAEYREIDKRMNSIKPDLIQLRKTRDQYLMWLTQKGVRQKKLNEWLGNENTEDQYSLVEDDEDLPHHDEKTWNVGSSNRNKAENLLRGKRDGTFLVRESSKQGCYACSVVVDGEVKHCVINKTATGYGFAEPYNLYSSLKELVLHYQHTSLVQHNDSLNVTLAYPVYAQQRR
# Description: FIG. 3: PMA treatment results in an increase in PI3K activation, in vitro. SYF/cSrc cells were cultured under serum-free conditions for 24 hours. Cells were unstimulated or stimulated with 10% serum (positive control), 100 nM PMA for 5 or 15 minutes. Cells were then lysed in kinase assay buffer and a PI3K kinase activity assay performed using anti-p1100α immunoprecipitates to measure PMA-induced incorporation of [^32p] into phosphoinositide substrates.
# PI3K activity was determined using the In vitro PI3K kinase assay as previously described (Jiang, B. H. et. al., 1998). Cells were serum-starved 24 hours. The media was changed and cells were then treated with either 10% fetal calf serum or 100 nM PMA for 5 or 15 minutes alone or in conjunction with 6 μM bisindolylmaleimide [i] or 10 μM LY294002 for six hours as a negative control. Upon completion of the incubation, the cells were lysed in cold kinase lysis buffer [150 mM NaCl, 100 mM Tris pH 8.0, 1% Triton X-100, 5 mM EDTA, 10 mM NaF, plus inhibitors (1 mg/ml leuptin, 1 mg/ml peptatin, 0.5 M sodium vanadate, 1 mg/ml aprotinin, and 1M DTT)]. Five hundred micrograms (500 μg) of protein was incubated with p110α antibody overnight at 4° C. Forty microliters (40 μl) of protein A/G PLUS agarose beads (50% slurry) was added and incubated for an additional two hours. […]
# [2] = p85−/− cells, 100 nM PMA 15 min
smiles,measurement,setting,value
"CCCCCCCCCCCCCC(=O)O[C@@H]1[C@@H](C)[C@@]2(O)[C@@H](C=C(CO)C[C@]3(O)C(=O)C(C)=C[C@@H]23)[C@@H]2C(C)(C)[C@]12OC(C)=O [PMA, Phorbol 12-myristate 13-acetate]",activation of cSrc (anti-phospho-cSrc Y416 immunoreactivity) on PMA treatment,"[1]; SYF cells, 100 nM PMA 15 min",evidence for activation of cSrc
same,colocalization of GFP-AFAP-110 with cSrc on PMA treatment,"[1]; SYF cells, 100 nM PMA 15 min",caused GFP-AFAP-110 to colocalize with cSrc
same,cSrc activation on PMA treatment,[1]; p85α+/+ cells,enables PMA to induce
same,colocalization of AFAP-110 with cSrc on PMA treatment,[1]; p85α+/+ cells,enables PMA to induce
same,cSrc activation on PMA treatment,[1]; [2],no evidence for cSrc activation
same,colocalization of AFAP-110 with cSrc on PMA treatment,[1]; [2],failed to induce significant colocalization
same,PI3K activity (incorporation of 32P into phosphoinositide substrate),PI3K,significant increase
